Laboratory results as given in patent publication EP2906547B2, “COSMETIC COMPOSITIONS CONTAINING AT LEAST ONE HYDROTROPE AND AT LEAST ONE ACTIVE COMPOUND” (priority 2012, dated 2014).
In brackets after ≈: the same amount, converted by molar mass. Where two headings read alike, the source gives them in different places.

Assays:
physchem = experiment: physchem
Method: Another aspect of the text discloses a method for preparing the aqueous compositions comprising including in the composition at least one phenolic compound and at least one hydrotrope in an amount sufficient to solubilize the phenolic compound, such as a polyphenol, in water. A hydrotrope solution is prepared by completely dissolving one or more hydrotropic agents into water. At least one phenolic compound is then added in and mixed using a stirring bar or any other mixer. […] Everything is prepared at room temperature to keep the stability of the phenolic compound(s).
Everything is prepared at room temperature to keep the stability of the phenolic compounds.

[1] = Stability of solutions on dilution in water
[2] = Solubility of baicalin in water as a function of pH; format: physicochemical; settings: for solubility: water
[3] = Solubility of adenosine in water with and without hydrotropes
[4] = 5% nicotinamide and 5% caffeine, room temperature
[5] = 5% nicotinamide, 5% caffeine, water

With `O=C1c2c(O)cc(O)cc2O[C@H](c2ccc(O)c(O)c2)[C@H]1O` [Taxifolin] the “Solubility in water with hydrotropes” value (physchem; [4]) was >1 % (w/w) and the solubility thermodynamic (physchem; water) was < 1000 µg/mL.

With `COc1ccc([C@@H]2CC(=O)c3c(O)cc(O[C@@H]4O[C@H](CO)[C@@H](O)[C@H](O)[C@H]4O[C@@H]4O[C@@H](C)[C@H](O)[C@@H](O)[C@H]4O)cc3O2)cc1O` [Neohesperidin] the “Solubility in water without hydrotropes” value (physchem; water) was <0.05 % (w/w).

With `Oc1ccc(C=Cc2cc(O)cc(O)c2)cc1` [Resveratrol] the “Solubility in water with hydrotropes” value (physchem; [5]) was >0.75 % (w/w) and the solubility thermodynamic (physchem; water) was < 50 µg/mL.

In the case of `O=C(O)[C@H]1O[C@@H](Oc2cc3oc(-c4ccccc4)cc(=O)c3c(O)c2O)[C@H](O)[C@@H](O)[C@@H]1O` [Baicalin], the “stability of dilution in water” value ([1]; hydrotrope solution diluted in water) is reported as “still stable”, the “stability of dilution in water” value ([1]; solution in organic solvent (e.g. PEG-4) diluted in water, crystallization or precipitation occurs) is reported as “not stable any more” and the “pH at which degradation happens” value ([2]; in water) is reported as > 5. For the same molecule, the solubility ([2]; pH 3, water, in water, pH 3, read-out: Solubility) was 16 µg/mL (≈ 35.8 µM), the solubility ([2]; pH 3.5, water, in water, pH 3.5, read-out: Solubility) was 21 µg/mL (≈ 47 µM) and the solubility ([2]; pH 4, water, in water, pH 4, read-out: Solubility) was 40 µg/mL (≈ 89.6 µM). The solubility ([2]; pH 4.5, water, in water, pH 4.5, read-out: Solubility) was 84 µg/mL (≈ 188 µM), the solubility ([2]; pH 4.5, water, without hydrotrope, natural pH -4.5, read-out: solubility in water) was < 100 µg/mL and the solubility ([2]; pH 5, water, in water, pH 5, read-out: Solubility) was 350 µg/mL (≈ 784 µM). For the same molecule, the water solubility (physchem; 2% caffeine in water) was 0.11%, the “Solubility in water with hydrotropes” value (physchem; [5]) was >1 % (w/w) and the “amount solubilized in water” value (physchem; [5]) was “approximately 1%”. For the same molecule, the solubility thermodynamic (physchem; water) was < 100 µg/mL.

In the case of `O=c1oc2c(O)c(O)cc3c(=O)oc4c(O)c(O)cc1c4c23` [Ellagic acid], the “Solubility in water with hydrotropes” value (physchem; [4]) is reported as >0.01 % (w/w) and the solubility thermodynamic (physchem; water) is reported as < 10 µg/mL.

In the case of `Nc1ncnc2c1ncn2[C@@H]1O[C@H](CO)[C@@H](O)[C@H]1O` [Adenosine], the “Solubility in water with hydrotropes” value [3, 4] is reported as >3 %(w/w) and the solubility thermodynamic ([3]; water) is reported as < 5000 µg/mL.
